This is an account of results in patent publication US5576439A, “Dihydropyridinecarboxylic acid anhydrides” (Ciba-Geigy Corporation, priority 1994, dated 1996).

The target of assay [1] is T1, ETA receptor (Rattus norvegicus, UniProt P26684).
T1 construct: labeled A7r5 cells; endogenous in cells; host or cells: A7r5 cells
T1 sequence (P26684 21-426): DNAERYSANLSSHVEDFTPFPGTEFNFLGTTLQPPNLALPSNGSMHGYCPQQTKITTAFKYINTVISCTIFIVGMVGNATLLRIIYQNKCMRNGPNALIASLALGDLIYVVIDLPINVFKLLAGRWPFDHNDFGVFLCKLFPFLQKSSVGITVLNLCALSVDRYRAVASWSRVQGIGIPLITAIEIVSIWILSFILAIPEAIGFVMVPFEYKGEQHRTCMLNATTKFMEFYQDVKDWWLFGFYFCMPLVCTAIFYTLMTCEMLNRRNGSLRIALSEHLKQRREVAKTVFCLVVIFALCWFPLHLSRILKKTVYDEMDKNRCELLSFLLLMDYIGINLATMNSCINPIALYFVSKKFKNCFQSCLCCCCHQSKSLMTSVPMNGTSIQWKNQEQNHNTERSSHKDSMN
The assay is described as follows: ETA receptor inhibitory activity by release of [^3 H]-inositol from labeled A7r5 cells. The assay is classed as cell-based. The source says:
For instance the ETA receptor inhibitory activity can be determined by measuring the release of [^3 H]-inositol from [^3 H]-inositol labeled A7r5 cells, as previously described by Cioffi et at, J. Cardiovasc. Pharmacol. 22 (Suppl. 8), S-168 (1993).

Assay [2] has as its target T2, ETA receptor (Sus scrofa, UniProt Q29010).
T2 construct: porcine thoracic aorta membranes (ETA receptor); from tissue; host or cells: porcine thoracic aorta membranes
T2 sequence (Q29010 21-427): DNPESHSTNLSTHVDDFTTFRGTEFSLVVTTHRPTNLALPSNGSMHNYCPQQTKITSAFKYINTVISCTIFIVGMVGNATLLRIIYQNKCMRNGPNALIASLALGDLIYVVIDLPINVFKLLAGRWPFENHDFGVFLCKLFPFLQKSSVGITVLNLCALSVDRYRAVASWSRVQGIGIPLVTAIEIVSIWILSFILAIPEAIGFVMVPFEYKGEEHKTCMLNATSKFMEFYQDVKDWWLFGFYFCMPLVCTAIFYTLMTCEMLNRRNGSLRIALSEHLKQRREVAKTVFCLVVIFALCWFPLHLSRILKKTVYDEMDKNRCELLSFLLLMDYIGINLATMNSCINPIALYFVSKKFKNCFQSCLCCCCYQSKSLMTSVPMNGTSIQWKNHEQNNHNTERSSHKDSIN
The assay is described as follows: Inhibition of [^125 I] ET-1 binding to porcine thoracic aorta membranes. As for the experimental part:
(§1) Inhibition of the binding of [^125 I] ET-1 to porcine thoracic aorta membranes (ETA receptor) is determined according to Cioffi et al, J. Pharmacol. Exp. Ther. 262, 611 (1992); similarly inhibition of binding of [^125 I] ET-1 to rat cerebellum membranes (ETB receptor).

Another assay deals with T3, ETB receptor (Rattus norvegicus, UniProt P21451).
T3 construct: rat cerebellum membranes (ETB receptor); from tissue; host or cells: rat cerebellum membranes
T3 sequence (P21451 27-442): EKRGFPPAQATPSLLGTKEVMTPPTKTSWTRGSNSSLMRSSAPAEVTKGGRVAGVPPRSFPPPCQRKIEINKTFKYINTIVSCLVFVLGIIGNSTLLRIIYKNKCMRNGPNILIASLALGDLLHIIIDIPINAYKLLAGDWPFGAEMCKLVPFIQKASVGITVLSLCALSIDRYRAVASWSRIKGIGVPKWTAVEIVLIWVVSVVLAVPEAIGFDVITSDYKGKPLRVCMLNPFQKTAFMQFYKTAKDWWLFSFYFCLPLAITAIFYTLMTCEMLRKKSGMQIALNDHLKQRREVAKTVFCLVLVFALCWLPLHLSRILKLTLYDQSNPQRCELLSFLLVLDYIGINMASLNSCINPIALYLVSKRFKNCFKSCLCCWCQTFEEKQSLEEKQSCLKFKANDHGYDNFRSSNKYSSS
The assay is described as follows: Inhibition of [^125 I] ET-1 binding to rat cerebellum membranes. As for the experimental part:
as §1

Assay [3] deals with ET-1 induced contractile response in isolated rabbit aorta. The assay is described as follows: Inhibition of ET-1 induced contractile response in isolated rabbit aorta. Conditions: 10 μM, 30 minute pretreatment. As for the experimental part:
(§2) The cardiovascular effects of ET-1 inhibitory activity can be determined as follows:
(§3) A 30 minute pretreatment with test compound (0.1-10 μM) is utilized to determine inhibition of the ET-1 induced contractile response in isolated rabbit aorta. The maximal response to ET-1 is measured at 0.1, 1 and 10 μM, respectively. Similar pretreatment with test compound (1 μM) is utilized to determine the effects of phenylephrine or KCl induced contraction, an indication that the specificity of hemodynamic affects is caused by intereaction with the endothelin receptor. A 5 minute pretreatment with test compound (10 mg/kg, i.v.) is also used to assess the effects on pressor response and attenuation of the depressor response to ET-1 (0.25 nmol/kg iv.) in the conscious rat.

In assay [4] the test system is increase in blood pressure induced by ET-1. The assay is described as follows: Effect on pressor response to ET-1 in the conscious rat. Particulars: 10 mg/Kg i.v., 5 minute pretreatment, ET-1 0.25 nmol/kg i.v. The format is in vivo. As for the experimental part: as §2, §3

Consider `COC(=O)C1=C(C)NC(C)=C(C(=O)OC(=O)C2=C(C)NC(C)=C(C(=O)OC)[C@@H]2c2cccc([N+](=O)[O-])c2)[C@@H]1c1cccc([N+](=O)[O-])c1` [Example 1, meso-1,4-dihydro-5-methoxycarbonyl-2,6-dimethyl-4-(3-nitrophenyl)-3-pyridine-carboxylic acid anhydride], for which the IC50 on ETA receptor [1] is about 140 nM; on ETA receptor [2], about 16 nM; on ETB receptor, about 300 nM. Moreover, in assay [3], the “inhibition of ET-1 induced contractile response” value is reported as 77%. Further, the “antagonism of increase in blood pressure induced by ET-1” value in assay [4] is “completely antagonizes”.
